The values that follow come from patent publication EP0540782B1, “Use of analogues of polyisoprenyl pyrophosphate for inhibiting protein isoprenylation” (NEDERLANDSE ORGANISATIE VOOR …, priority 1991, dated 1993).

The target in test [1] is farnesyl: protein transferase (Oryctolagus cuniculus, UniProt G1SFC8+G1T7D9). Nature of the test: Inhibition of farnesylation of p21ras precursor (H-ras protein) by farnesyl: protein transferase in rabbit reticulocyte lysate, [3H]-FPP incorporation. Conditions: read-out: IC50-values, H-ras protein 30 µg/ml, 1 µM [3H]-farnesyl pyrophosphate, 37°C for 30 min.
Sequence of farnesyl: protein transferase (G1T7D9 entry or part of it, one chain of several): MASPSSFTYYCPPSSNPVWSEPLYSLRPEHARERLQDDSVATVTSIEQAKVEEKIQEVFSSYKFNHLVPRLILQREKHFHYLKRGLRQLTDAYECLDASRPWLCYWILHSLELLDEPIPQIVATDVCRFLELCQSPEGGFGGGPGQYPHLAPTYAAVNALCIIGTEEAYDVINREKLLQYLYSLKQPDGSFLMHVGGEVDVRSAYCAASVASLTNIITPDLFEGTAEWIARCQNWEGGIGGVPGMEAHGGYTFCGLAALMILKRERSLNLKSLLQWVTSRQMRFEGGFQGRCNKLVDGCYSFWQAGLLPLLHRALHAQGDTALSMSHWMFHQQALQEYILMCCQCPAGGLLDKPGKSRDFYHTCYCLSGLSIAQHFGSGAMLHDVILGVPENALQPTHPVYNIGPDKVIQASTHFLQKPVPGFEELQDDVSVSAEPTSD
In another test the target is T1, squalene synthase (Rattus norvegicus, UniProt Q02769).
T1 construct: squalene synthase in rat liver microsomal preparations; from tissue; host or cells: rat liver microsomes
T1 sequence (Q02769 1-416): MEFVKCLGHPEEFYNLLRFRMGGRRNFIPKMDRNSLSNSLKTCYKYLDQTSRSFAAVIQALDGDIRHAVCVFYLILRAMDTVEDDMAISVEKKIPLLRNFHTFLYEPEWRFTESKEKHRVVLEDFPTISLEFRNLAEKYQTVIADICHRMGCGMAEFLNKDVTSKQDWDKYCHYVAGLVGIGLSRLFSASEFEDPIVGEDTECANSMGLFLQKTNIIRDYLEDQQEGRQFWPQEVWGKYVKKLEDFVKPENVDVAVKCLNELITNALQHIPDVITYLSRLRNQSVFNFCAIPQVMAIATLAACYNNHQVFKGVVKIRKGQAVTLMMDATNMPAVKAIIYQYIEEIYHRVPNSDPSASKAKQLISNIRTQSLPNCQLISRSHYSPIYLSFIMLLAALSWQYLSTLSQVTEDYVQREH
Nature of the test: Inhibition of squalene synthase in rat liver microsomal preparations. The test is classed as biochemical. On the technique in general: Microsomes from liver hold many membrane-bound enzymes, among them those of drug oxidation.

A value given as a limit tells only on which side of the number the result lay.

For `CC(C)=CCCC(C)=CCCC(C)=CCCP(=O)(O)OP(=O)(O)O` [compound 1, farnesylmethylphosphonophosphate], the IC50 came to 4 µM in test [1] and 480 µM at squalene synthase.
Take `CC(C)=CCCC(C)=CCCC(C)=CCP(=O)(O)OP(=O)(O)O` [compound 3, farnesylphosphonophosphate]: the IC50 in test [1] was below 1 µM; on squalene synthase it was 120 µM.
